# Measurements published in paper PMC6053381, “Novel 2-phenyloxypyrimidine derivative induces apoptosis and autophagy via inhibiting PI3K pathway and activating MAPK/ERK signaling in hepatocellular carcinoma cells” (Scientific Reports, 2018).
# How the values were obtained:
# [1] = biological target: PDGFRα (Homo sapiens, UniProt P16234); test: PDGFR kinase assay, Caliper microfluidic mobility shift; assay type: biochemical
# Protocol: (§1) In vitro inhibitory activities of all compounds at 1 μM against PDGFRα and PDGFRβ were evaluated using Caliper microfluidic mobility shift technology. […] At the same concentration, only E5 inhibited greater than 50% of PDGFRβ activity (Fig. 2B).
# (§2) PDGFR kinase activity was measured using Caliper microfluidic mobility shift technology. Briefly, 2 μL compound solution (25 μM) in 25% DMSO per well were added into the 384 well microtiter plates. Then, 10 μL per well of enzyme solution (100 mM HEPES, 10 mM MgCl2, Brij35 (30%) 100 μL, 1 mM DTT, 20 ng enzyme) was added. After a brief centrifugation at 1,000 rpm, the kinase reactions were started by addition of 38 μL per well of peptide/ATP-solution (40 μM ATP, 6.5 μM peptide 5′-FAM-KKKKEEIYFFF-NH2, Tris-HCl buffer, pH 7.0) incubated at 30 °C for 60 min and stopped by the addition of 20 μL 35 mM EDTA per well. The electrophoretic separation of the phosphorylated and non-phosphorylated peptides was then carried out on LabChip EZ Reader II (Caliper Life Sciences). All other kinase reactions were carried out as previously reported using the Kinase-Glo Plus or ADP-Glo assay. Kinase inhibition rates were calculated per manufacturer’s instructions.
# [2] = biological target: PDGFRβ (Homo sapiens, UniProt P09619); test: as above; assay type: biochemical; details: averages of two separate experiments
# Sequence of PDGFRβ (P09619 33-1106): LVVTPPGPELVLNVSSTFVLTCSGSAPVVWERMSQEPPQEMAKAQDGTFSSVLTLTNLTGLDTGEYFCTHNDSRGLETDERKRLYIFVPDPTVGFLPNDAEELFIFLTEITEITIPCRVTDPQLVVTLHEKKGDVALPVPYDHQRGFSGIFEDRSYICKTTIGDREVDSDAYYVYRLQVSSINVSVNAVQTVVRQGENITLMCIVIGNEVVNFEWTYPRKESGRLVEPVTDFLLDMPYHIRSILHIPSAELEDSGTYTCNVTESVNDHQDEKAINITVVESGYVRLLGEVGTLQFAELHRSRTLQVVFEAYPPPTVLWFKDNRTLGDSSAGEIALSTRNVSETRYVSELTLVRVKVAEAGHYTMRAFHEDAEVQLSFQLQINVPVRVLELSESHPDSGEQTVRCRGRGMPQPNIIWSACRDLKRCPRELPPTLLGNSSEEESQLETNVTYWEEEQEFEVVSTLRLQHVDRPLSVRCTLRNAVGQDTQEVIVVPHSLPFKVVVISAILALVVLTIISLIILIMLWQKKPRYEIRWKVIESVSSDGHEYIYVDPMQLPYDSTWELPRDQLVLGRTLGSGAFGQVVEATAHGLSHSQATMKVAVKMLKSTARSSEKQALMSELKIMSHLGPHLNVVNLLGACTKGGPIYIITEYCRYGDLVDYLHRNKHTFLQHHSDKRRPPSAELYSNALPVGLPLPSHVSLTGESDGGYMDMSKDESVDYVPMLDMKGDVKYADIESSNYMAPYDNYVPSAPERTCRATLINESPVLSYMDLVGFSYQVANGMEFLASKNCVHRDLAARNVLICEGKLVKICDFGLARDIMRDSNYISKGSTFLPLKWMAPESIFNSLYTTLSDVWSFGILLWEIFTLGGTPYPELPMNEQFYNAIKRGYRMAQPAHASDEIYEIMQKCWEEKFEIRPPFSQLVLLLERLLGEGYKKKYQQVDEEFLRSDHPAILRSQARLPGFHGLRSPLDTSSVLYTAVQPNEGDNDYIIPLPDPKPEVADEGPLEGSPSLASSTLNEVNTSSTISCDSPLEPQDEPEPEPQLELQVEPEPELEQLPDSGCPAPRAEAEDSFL
# Protocol: as §1, §2
# [3] = tested on: Bel7404 cells; test: Colony formation assay; assay type: cell-based; details: 0–20 μM, 24 h treatment, two weeks culture
# Protocol: (§3) Cells (300/well) were seeded in 24-well plates and incubated overnight in a humidified atmosphere of 5% CO2 at 37 °C. Incremental concentrations of E5 (0–20 μM) were then added, and the medium was replaced with fresh culture medium containing 10% FBS after 24 h. After two weeks of culture, colonies were fixed with methanol, stained with 1% crystal violet and colonies containing more than 50 cells were counted.
# [4] = tested on: HepG2 cells; test: Colony formation assay; assay type: cell-based; details: 0–20 μM, 24 h treatment, two weeks culture
# Protocol: as §3
# [5] = tested on: Bel7404 cells; test: Cell cycle distribution by flow cytometry (PI); assay type: cell-based; details: 24 h treatment
# Protocol: (§4) Cells were incubated with E5 for 24 h, after which cells were washed, stained and subjected to flow cytometry analysis. The cell cycle was analyzed by staining with propidium iodide (PI), and the extent of cell death/apoptosis was evaluated by double staining with annexin V-FITC and PI. The fluorescence was measured with a FACScan flow cytometer (Becton Dickinson, USA).
# [6] = tested on: HepG2 cells; test: Cell cycle distribution by flow cytometry (PI); assay type: cell-based; details: 24 h treatment
# Protocol: as §4
# [7] = tested on: Bel7404 cells; test: Apoptosis by Annexin V/PI flow cytometry; assay type: cell-based; details: 24 h, Annexin V/PI double staining
# Protocol: (§5) We next explored the apoptosis-inducing ability of E5 in HCC cells. Bel7404 and HepG2 cells were treated with E5 for 24 h and stained with the fluorescent DNA-binding dye, Hoechst 33258. The cells were brightly stained in a dose-dependent manner, showing a typical morphological sign of apoptosis (Fig. 5A). […] Furthermore, E5 induced a specific cleavage of PARP and a decrease of pro-form of caspase-3, caspase-7 and caspase-9 (Fig. 5C). […] In addition, the pan-caspase inhibitor Z-VAD-FMK partially rescued the viability of HCC cells reduced by E5, implying that E5 might also induce non-apoptotic form of cell death (Fig. 5D).
# as §4
# [8] = tested on: HepG2 cells; test: Apoptosis by Annexin V/PI flow cytometry; assay type: cell-based; details: 24 h, Annexin V/PI double staining
# Protocol: as §5, §4
# [9] = tested on: Bel7404 cells; test: Autophagy: LC3-I to LC3-II conversion, Western blot; assay type: cell-based
# From the text: (§6) To investigate whether E5 triggers autophagic cell death in HCC cells, several characteristic events of autophagy were examined using different techniques. First, E5 stimulated LC3 puncta formation in HCC cells transfected with adenovirus expressing GFP-LC3 fusion protein as detected by fluorescence microscopy (Fig. 6A). […] Third, the effects of E5 on autophagy flux was examined by co-treatment of E5 with chloroquine (CQ), an inhibitor that prevents the formation of autolysosomes by inhibiting autophagosome-lysosome fusion and […] degradation. […] Fourth, E5 increased the expression of Atg5, which is essential for the elongation of autophagosomes (Fig. 6B), and the cell viability by E5 treatment was increased in HCC cells by knockdown of Atg5 (Fig. 6E). Finally, treatment with 3-methyladenine (3-MA), an autophagy inhibitor, partially reversed E5-induced cell death in HCC cells (Fig. 6F).
# (§7) After treatment with E5 for 24 h, cells were lysed in RIPA cell lysis buffer. Equal amount of protein (30–40 μg) was separated on a 12% or 15% SDS-PAGE and transferred electrophoretically onto a 0.45 μm PVDF membrane. Then, the membrane was blocked for 2 h at room temperature with 5% non-fat dried milk in TBS buffer and incubated with appropriate antibodies at 1:1000 (overnight, 4 °C). […]
# [10] = tested on: HepG2 cells; test: as above; assay type: cell-based
# From the text: as §6, §7
# Sequence of PDGFRα (P16234 24-1089): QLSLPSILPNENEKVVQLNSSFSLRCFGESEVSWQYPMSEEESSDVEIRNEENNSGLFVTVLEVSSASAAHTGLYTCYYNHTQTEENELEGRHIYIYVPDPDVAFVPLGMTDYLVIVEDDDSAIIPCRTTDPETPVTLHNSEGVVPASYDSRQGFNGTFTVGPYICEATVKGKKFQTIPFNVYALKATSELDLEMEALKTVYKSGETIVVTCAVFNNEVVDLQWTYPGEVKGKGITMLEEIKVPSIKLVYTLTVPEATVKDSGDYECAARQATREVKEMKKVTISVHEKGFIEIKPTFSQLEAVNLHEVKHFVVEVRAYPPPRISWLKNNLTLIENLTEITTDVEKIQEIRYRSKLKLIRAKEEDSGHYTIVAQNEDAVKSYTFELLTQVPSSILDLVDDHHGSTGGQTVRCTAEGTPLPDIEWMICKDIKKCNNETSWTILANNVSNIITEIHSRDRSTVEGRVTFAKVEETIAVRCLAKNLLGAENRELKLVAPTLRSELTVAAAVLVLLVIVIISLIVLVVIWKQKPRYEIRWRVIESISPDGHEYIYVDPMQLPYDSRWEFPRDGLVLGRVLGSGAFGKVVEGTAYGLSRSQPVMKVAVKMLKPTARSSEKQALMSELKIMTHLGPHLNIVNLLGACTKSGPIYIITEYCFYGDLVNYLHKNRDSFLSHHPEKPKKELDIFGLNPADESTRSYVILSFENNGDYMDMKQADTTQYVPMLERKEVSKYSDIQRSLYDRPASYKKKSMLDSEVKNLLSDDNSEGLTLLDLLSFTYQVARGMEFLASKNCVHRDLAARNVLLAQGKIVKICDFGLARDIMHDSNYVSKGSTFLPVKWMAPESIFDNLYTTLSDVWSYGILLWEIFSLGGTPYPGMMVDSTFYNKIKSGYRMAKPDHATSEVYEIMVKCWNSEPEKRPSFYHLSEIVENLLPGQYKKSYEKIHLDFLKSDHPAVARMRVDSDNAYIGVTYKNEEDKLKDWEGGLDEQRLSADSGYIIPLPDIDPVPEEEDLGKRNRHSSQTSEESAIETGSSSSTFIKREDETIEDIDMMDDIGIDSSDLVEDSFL
structure (smiles),measurement,setting,value
"Cc1ccc(NC(=O)c2ccc(CN3CCN(C)CC3)cc2)cc1Oc1nccc(-c2cc3ccccc3o2)n1 [E5, N-(3-((4-(benzofuran-2-yl)pyrimidin-2-yl)oxy)-4-methylphenyl)-4-((4-methylpiperazin-1-yl)methyl)benzamide]",Selectivity index,[1]; IC50 (PDGFRβ)/ IC50 (PDGFRα),2.32
same,IC50,[1]; averages of two separate experiments,0.4 µM
same,inhibition at 1 µM,"[1]; compound at 1 µM, averages of two separate experiments, read-out: Inhibition effect (%) PDGFRα",> 85%
same,IC50,[2],0.93 µM
same,IC50 PDGFRβ,[2],moderate inhibitory activity
same,inhibition at 1 µM,"[2]; compound at 1 µM, read-out: Inhibition effect (%) PDGFRβ",> 50%
same,Effect on clonogenicity,[3],significantly inhibited the clonogenicity
same,Effect on clonogenicity,[4],significantly inhibited the clonogenicity
same,Effect on cell cycle distribution,[5],elicited G2/M phase arrest in a dose-dependent manner
same,Effect on cell cycle distribution,[6],elicited G2/M phase arrest in a dose-dependent manner
same,Apoptosis induction,[7],induced apoptosis in a dose-dependent manner
same,Apoptosis induction,[8],induced apoptosis in a dose-dependent manner
same,Conversion of LC3-I to LC3-II,[9],induced the conversion of LC3-I to LC3-II in a dose- and time-dependent manner
same,Conversion of LC3-I to LC3-II,[10],induced the conversion of LC3-I to LC3-II in a dose- and time-dependent manner
